Reference: ChEMBL document CHEMBL2176897, “Synthesis and biological evaluation (in vitro and in vivo) of cyclic arginine-glycine-aspartate (RGD) peptidomimetic-paclitaxel conjugates targeting integrin αVβ3” (J Med Chem, 2012)
pIC50: −log10 of the molar value. The source made the active and inactive calls. No cut-off for these calls is given here.

Experiments:
Integrin alpha-V/beta-3 = Integrin alpha-V/beta-3 (Homo sapiens, UniProt P05106+P06756); assay: Competitive inhibition of biotinylated vitronectin to integrin alphaVbeta3 receptor after 3 hrs by microplate reader analysis; assay type: protein-complex assay
Integrin alpha-V/beta-5 = Integrin alpha-V/beta-5 (Homo sapiens, UniProt P06756+P18084); assay: Competitive inhibition of biotinylated vitronectin to integrin alphaVbeta5 receptor after 3 hrs by microplate reader analysis; assay type: protein-complex assay
[1] = Selectivity ratio of IC50 for integrin alphaVbeta5 receptor to IC50 for integrin alphaVbeta3 receptor
[2] = Cytostatic activity against human dermal fibroblasts assessed as growth inhibition at 64 to 1000 nM after 72 hrs by coulter counter analysis; conditions: skin fibroblast, 1 µM
IGROV-1 [3] = assay: Cytotoxicity against human IGROV1 cells after 72 hrs by coulter counter analysis; assay type: functional, cell-based; conditions: IGROV-1, 72 h
PANC-1 = assay: Cytotoxicity against human PANC1 cells after 72 hrs by coulter counter analysis; assay type: functional, cell-based; conditions: PANC-1, 72 h
MIA PaCa-2 = assay: Cytotoxicity against human MIAPaCa2 cells after 72 hrs by coulter counter analysis; assay type: functional, cell-based; conditions: MIA PaCa-2, 72 h
IGROV-1 [4] = assay: Cytotoxicity against cisplatin-resistant human IGROV1/Pt1 cells after 72 hrs by coulter counter analysis; assay type: functional, cell-based; conditions: IGROV-1, 72 h
SK-OV-3 = assay: Cytotoxicity against human SKOV3 cells after 72 hrs by coulter counter analysis; assay type: functional, cell-based; conditions: SK-OV-3, 72 h
U2OS = assay: Cytotoxicity against human U2OS cells after 72 hrs by coulter counter analysis; assay type: functional, cell-based
[5] = Antitumor activity against cisplatin-resistant human IGROV1/Pt1 cells overexpressing integrin alphaVbeta3 receptors xenografted in athymic Swiss mouse assessed as tumor volume inhibition at 30 mg/kg, iv administered every 4 days for 4 times measured after 10 days relative to control; assay type: functional; conditions: IGROV-1
IGROV-1 [6] = assay: Antitumor activity against cisplatin-resistant human IGROV1/Pt1 cells overexpressing integrin alphaVbeta3 receptors xenografted in athymic Swiss mouse assessed as absence of disease at 30 mg/kg, iv administered every 4 days for 4 times measured up to 10 days; assay type: functional, organism-based; set-up: dose 30 mg/kg
IGROV-1 [7] = assay: Induction of abberant mitosis in cisplatin-resistant human IGROV1/Pt1 cells overexpressing integrin alphaVbeta3 receptors xenografted in athymic Swiss mouse at 30 mg/kg, iv measured 24 hrs post second treatment by hematoxylin and eosin staining; assay type: functional, organism-based; set-up: dose 30 mg/kg
[8] = Antitumor activity against cisplatin-resistant human IGROV1/Pt1 cells overexpressing integrin alphaVbeta3 receptors xenografted in athymic Swiss mouse assessed as tumor killing at 30 mg/kg, iv administered every 4 days for 4 times; assay type: functional, IGROV-1
Mus musculus = assay: Toxicity in athymic Swiss mouse xenografted with cisplatin-resistant human IGROV1/Pt1 cells overexpressing integrin alphaVbeta3 receptors assessed as body weight loss at 30 mg/kg, iv administered every 4 days for 4 times; assay type: organism-based, IGROV-1; set-up: dose 30 mg/kg, route intravenous; conditions: in vivo, 96 h
IGROV-1 [9] = assay: Induction of abberant mitosis in cisplatin-resistant human IGROV1/Pt1 cells overexpressing integrin alphaVbeta3 receptors xenografted in athymic Swiss mouse at 30 mg/kg, iv measured 24 hrs post fourth treatment by hematoxylin and eosin staining; assay type: functional, organism-based; set-up: dose 30 mg/kg

Row | Compound | pIC50 (Integrin alpha-V/beta-3) | pIC50 (Integrin alpha-V/beta-5) | Ratio IC50 [1] | growth inhibition (GI) [2] | pIC50 (IGROV-1 [3]) | pIC50 (PANC-1) | pIC50 (MIA PaCa-2) | pIC50 (IGROV-1 [4]) | pIC50 (SK-OV-3) | pIC50 (U2OS) | other results
1 | N=C(N)NCCC[C@@H]1NC(=O)[C@@H]2CC[C@H]3CCC[C@@H](NC(=O)[C@H](CC(=O)O)NC(=O)CNC1=O)C(=O)N32 | 9.00 | 8.85 | 20 | – | – | – | – | – | – | – | –
2 | N=C(N)NCCC[C@@H]1NC(=O)C[C@H]2NC(=O)[C@H](CNC(=O)[C@H](CC(=O)O)NC(=O)CNC1=O)N(Cc1ccc(CN)cc1)C2=O.O=C(O)C(F)(F)F | 7.58 | < 5.30 | – | Non-toxic | < 5.92 | < 4.94 | < 4.94 | < 4.74 | < 4.94 | < 5.20 | –
3 | N=C(N)NCCC[C@@H]1NC(=O)C[C@H]2NC(=O)[C@H](CNC(=O)[C@H](CC(=O)O)NC(=O)CNC1=O)N(Cc1ccccc1)C2=O | – | 6.83 | 20 | – | – | – | – | – | – | – | –
4 | N=C(N)NCCC[C@@H]1NC(=O)C[C@@H]2C(=O)N[C@@H](CNC(=O)[C@H](CC(=O)O)NC(=O)CNC1=O)C(=O)N2Cc1ccccc1 | 8.68 | 7.10 | 20 | – | – | – | – | – | – | – | –
5 | CC(=O)O[C@H]1C(=O)[C@@]2(C)[C@H]([C@H](OC(=O)c3ccccc3)[C@]3(O)C[C@H](OC(=O)[C@H](OC(=O)CCC(=O)NCc4ccc(CN5C(=O)[C@H]6CNC(=O)[C@H](CC(=O)O)NC(=O)CNC(=O)[C@H](CCCN=C(N)N)NC(=O)C[C@H]5C(=O)N6)cc4)[C@@H](NC(=O)c4ccccc4)c4ccccc4)C(C)=C1C3(C)C)[C@]1(OC(C)=O)CO[C@@H]1C[C@@H]2O | 9.05 | 7.12 | – | Non-toxic | 7.46 | 8.49 | 8.74 | 8.43 | 8.62 | 8.17 | –
6 | NC(N)=NCCC[C@@H]1NC(=O)C[C@H]2C(=O)N[C@H](CNC(=O)[C@H](CC(=O)O)NC(=O)CNC1=O)C(=O)N2Cc1ccc(CNC(=O)CCC(=O)O)cc1 | 8.39 | 7.12 | – | – | – | – | – | – | – | – | –
7 | CC(=O)O[C@H]1C(=O)[C@@]2(C)[C@H]([C@H](OC(=O)c3ccccc3)[C@]3(O)C[C@H](OC(=O)[C@H](O)[C@@H](NC(=O)c4ccccc4)c4ccccc4)C(C)=C1C3(C)C)[C@]1(OC(C)=O)CO[C@@H]1C[C@@H]2O [PACLITAXEL] | – | – | – | Non-toxic | 7.64 | 8.28 | 8.14 | 8.66 | 8.57 | 8.47 | inhibition in vivo at 30 mg/kg [5]: 76%; Activity (IGROV-1 [6]): Active; Activity (IGROV-1 [7]): Active; LCK [8]: 0.7; Activity (Mus musculus): 4%; Activity (IGROV-1 [9]): inactive
8 | NC(N)=NCCC[C@@H]1NC(=O)C[C@@H]2NC(=O)[C@H](CNC(=O)[C@H](CC(=O)O)NC(=O)CNC1=O)N(Cc1ccccc1)C2=O | 8.41 | – | – | – | – | – | – | – | – | – | –
9 | N=C(N)NCCC[C@@H]1NC(=O)C[C@@H]2NC(=O)[C@@H](CNC(=O)[C@H](CC(=O)O)NC(=O)CNC1=O)N(Cc1ccccc1)C2=O | 8.49 | 6.94 | 20 | – | – | – | – | – | – | – | –
